Entries after “also recorded” stand apart in the source; their conditions may differ.
Target: T1, Human KOR (Homo sapiens, UniProt P41145)
T1 construct: expressed in transfected cells; host or cells: HEK-293T
Experiment: BRET functional assay, inhibition of reference agonist U-50,488 (antagonist mode), human KOR
Assay type: cell-based
Conditions: not given

T1 sequence (P41145 whole entry): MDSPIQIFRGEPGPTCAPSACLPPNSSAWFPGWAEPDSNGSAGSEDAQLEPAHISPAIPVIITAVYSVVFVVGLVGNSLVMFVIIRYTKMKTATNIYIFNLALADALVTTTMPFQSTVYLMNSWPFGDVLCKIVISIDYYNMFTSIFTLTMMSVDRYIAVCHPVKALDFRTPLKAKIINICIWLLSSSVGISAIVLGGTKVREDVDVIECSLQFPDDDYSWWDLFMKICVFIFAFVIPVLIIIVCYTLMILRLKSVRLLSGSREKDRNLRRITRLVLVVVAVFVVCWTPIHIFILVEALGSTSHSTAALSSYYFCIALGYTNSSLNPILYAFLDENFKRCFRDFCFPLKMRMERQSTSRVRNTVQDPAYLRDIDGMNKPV

| Compound | IC50 [µM] | antagonist activity at KOR (in words) |
| --- | --- | --- |
| CCC1CC2CC3c4oc5ccc(O)cc5c4C[C@@H](CC)N(C2)C13 (stereo partly drawn) [α-endo-52g] | 8.2 ± 0.5 | KOR antagonist |

Target: T2, Human MOR (Homo sapiens, UniProt P35372)
T2 construct: expressed in transfected cells; host or cells: HEK-293T
Experiment: cell-based
Conditions: not given

T2 sequence (P35372 whole entry): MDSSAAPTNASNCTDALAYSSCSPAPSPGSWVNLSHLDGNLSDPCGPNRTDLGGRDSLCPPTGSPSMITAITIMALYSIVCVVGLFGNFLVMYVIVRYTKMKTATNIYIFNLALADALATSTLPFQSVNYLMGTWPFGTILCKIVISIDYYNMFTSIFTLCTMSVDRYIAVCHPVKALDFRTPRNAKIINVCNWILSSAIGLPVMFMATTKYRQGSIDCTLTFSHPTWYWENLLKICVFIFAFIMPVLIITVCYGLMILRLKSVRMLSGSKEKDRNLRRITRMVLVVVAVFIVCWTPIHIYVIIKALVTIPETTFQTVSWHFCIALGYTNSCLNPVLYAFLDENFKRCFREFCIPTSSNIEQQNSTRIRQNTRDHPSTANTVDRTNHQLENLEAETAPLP

| Compound | agonist activity at MOR (in words) | EC50 (μM) with Emax in parentheses, Human MOR |
| --- | --- | --- |
| CCC1(CC)CC2CC3c4oc5ccc(O)cc5c4C[C@@H](C)N(C2)C31 (stereo partly drawn) [α-endo-52f] | not active as agonist | – |
| CCCC1CC2CC3c4oc5ccc(O)cc5c4CCN(C2)C13 (stereo not drawn) [Compound 35d] | agonist activity | – |
| CCC1CC2CC3c4oc5ccc(O)cc5c4C[C@H](C)N(C2)C13 (single isomer, unassigned) [α-exo-52e] | – | 0.40 μM ± 0.056 (98%) |
| CCC1CC2CC3c4oc5ccc(O)cc5c4C[C@H](C)N(C2)C13 (single isomer, unassigned) [α-exo-52f] | – | 0.48 μM ± 0.20 (50%) |
| CCC1CC2CC3c4oc5ccc(O)cc5c4C[C@@H](CC)N(C2)C13 (stereo partly drawn) [α-endo-52g] | not active as agonist | – |
| CCC1CC2CC3c4oc5ccc(O)cc5c4CCN(C2)C13 (stereo not drawn) [Compound 35a] | full agonist | – |

Same assay, conditions: EC50, Human MOR

| Compound | EC50 [µM] |
| --- | --- |
| CC[C@H]1Cc2c(oc3ccc(O)cc23)C2CC3CCC2N1C3 (stereo partly drawn) [α-exo-60f] | < 10 |
| CC[C@@H]1Cc2c(oc3ccc(O)cc23)C2CC3CCC2N1C3 (stereo partly drawn) [α-endo-60f] | > 100 |
| CCC1CC2(C)CC3c4oc5ccc(O)cc5c4CCN(C2)C13 (single isomer, unassigned) [Compound 60c] | < 10 |
| COCC1CC2CC3c4oc5ccc(OC)cc5c4CCN(C2)C13 (stereo not drawn) [Compound 59g] | > 100 |
| OCC1CC2CC3c4oc5ccc(O)cc5c4CCN(C2)C13 (stereo not drawn) [Compound 60g] | > 10 |
| Oc1ccc2oc3c(c2c1)CCN1CC2CC(Cc4ccccc4)C1C3C2 (stereo not drawn) [Compound 60h] | > 10 |
| CCC1CC2CC3c4oc5cccc(OC)c5c4CCN(C2)C13 (stereo not drawn) [Compound 51b] | > 10 |
| CCC1CC2CC3c4oc5cc(C)c(OC)cc5c4CCN(C2)C13 (stereo not drawn) [Compound 51c] | > 10 |
| CC1C2CCC3C(C2)c2oc4ccc(O)cc4c2CCN13 (stereo not drawn) [Compound 60d] | < 10 |

Same assay, conditions: EC50, induced BRET signal, Human MOR

| Compound | EC50 [µM] |
| --- | --- |
| CCCC1CC2CC3c4oc5ccc(O)cc5c4CCN(C2)C13 (stereo not drawn) [Compound 35d] | 0.922 ± 0.282 |
| CCC1CC2CC3c4oc5ccc(O)cc5c4CCN(C2)C13 (stereo not drawn) [Compound 35a] | 0.98 ± 0.14 |

Same assay, conditions: EC50 at indicated opioid receptor, Human MOR

| Compound | EC50 [µM] |
| --- | --- |
| CCC1CC2CC3c4oc5cc(F)c(OC)cc5c4CCN(C2)C13 (stereo not drawn) [Compound 34l] | > 100 |
| COCC1CC2CC3c4oc5ccc(O)cc5c4CCN(C2)C13 (stereo not drawn) [Compound 35i] | < 10 |
| CCCCC1CC2CC3c4oc5ccc(O)cc5c4CCN(C2)C13 (stereo not drawn) [Compound 35h] | < 10 |
| CCC1(CC)CC2CC3c4oc5ccc(O)cc5c4C[C@@H](C)N(C2)C31 (stereo partly drawn) [α-endo-52f] | > 100 |
| CCC1CC2CC3c4oc5c(O)cccc5c4CCN(C2)C13 (stereo not drawn) [Compound 52a] | > 100 |
| CCC1CC2CC3c4oc5cc(C)c(O)cc5c4CCN(C2)C13 (stereo not drawn) [Compound 52c] | > 10 |
| CCCC1CC2CC3c4oc5ccc(O)cc5c4CCN(C2)C13 (stereo not drawn) [Compound 35c] | < 10 |
| Oc1ccc2oc3c(c2c1)CCN1CC2CC(Cc4ccccc4)C1C3C2 (stereo not drawn) [Compound 35g] | < 10 |
| CCC1CC2CC3c4oc5ccc(O)cc5c4C[C@@H](CC)N(C2)C13 (stereo partly drawn) [α-endo-52g] | > 100 |
| CCC1CC2CC3c4oc5ccc(O)cc5c4CCN(C2)C13 (stereo not drawn) [Compound 35a] | < 10 |

Target: T1, Human KOR
Experiment: cell-based
Conditions: not given

| Compound | agonist activity at KOR (in words) | EC50 with Emax in parentheses |
| --- | --- | --- |
| CCC1(CC)CC2CC3c4oc5ccc(O)cc5c4C[C@@H](C)N(C2)C31 (stereo partly drawn) [α-endo-52f] | selective KOR agonist | – |
| CCCC1CC2CC3c4oc5ccc(O)cc5c4CCN(C2)C13 (stereo not drawn) [Compound 35d] | agonist activity | – |
| CCC1CC2CC3c4oc5ccc(O)cc5c4C[C@H](C)N(C2)C13 (single isomer, unassigned) [α-exo-52f] | – | 0.14 μM ± 0.006 (72%) |
| CCC1CC2CC3c4oc5ccc(O)cc5c4C[C@@H](CC)N(C2)C13 (stereo partly drawn) [α-endo-52g] | not active as agonist; also recorded: no agonist activity | – |
| CCC1CC2CC3c4oc5ccc(O)cc5c4CCN(C2)C13 (stereo not drawn) [Compound 35a] | full agonist | – |

Same assay, conditions: EC50, Human KOR

| Compound | EC50 [µM] |
| --- | --- |
| CC[C@H]1Cc2c(oc3ccc(O)cc23)C2CC3CCC2N1C3 (stereo partly drawn) [α-exo-60f] | < 10 |
| CC[C@@H]1Cc2c(oc3ccc(O)cc23)C2CC3CCC2N1C3 (stereo partly drawn) [α-endo-60f] | > 10 |
| CCC1CC2(C)CC3c4oc5ccc(O)cc5c4CCN(C2)C13 (single isomer, unassigned) [Compound 60c] | < 10 |
| COCC1CC2CC3c4oc5ccc(OC)cc5c4CCN(C2)C13 (stereo not drawn) [Compound 59g] | < 10 |
| OCC1CC2CC3c4oc5ccc(O)cc5c4CCN(C2)C13 (stereo not drawn) [Compound 60g] | < 10 |
| Oc1ccc2oc3c(c2c1)CCN1CC2CC(Cc4ccccc4)C1C3C2 (stereo not drawn) [Compound 60h] | > 10 |
| CCC1CC2CC3c4oc5cccc(OC)c5c4CCN(C2)C13 (stereo not drawn) [Compound 51b] | > 10 |
| CCC1CC2CC3c4oc5cc(C)c(OC)cc5c4CCN(C2)C13 (stereo not drawn) [Compound 51c] | > 10 |
| CC1C2CCC3C(C2)c2oc4ccc(O)cc4c2CCN13 (stereo not drawn) [Compound 60d] | < 10 |

Same assay, conditions: EC50, induced BRET signal, Human KOR

| Compound | EC50 [µM] |
| --- | --- |
| CCC1(CC)CC2CC3c4oc5ccc(O)cc5c4C[C@@H](C)N(C2)C31 (stereo partly drawn) [α-endo-52f] | 0.12 ± 0.014 |
| CCCC1CC2CC3c4oc5ccc(O)cc5c4CCN(C2)C13 (stereo not drawn) [Compound 35d] | 0.297 ± 0.03 |
| CCC1CC2CC3c4oc5ccc(O)cc5c4CCN(C2)C13 (stereo not drawn) [Compound 35a] | 0.66 ± 0.13 |

Same assay, conditions: EC50 at indicated opioid receptor, Human KOR

| Compound | EC50 [µM] |
| --- | --- |
| CCC1CC2CC3c4oc5cc(F)c(OC)cc5c4CCN(C2)C13 (stereo not drawn) [Compound 34l] | > 10 |
| COCC1CC2CC3c4oc5ccc(O)cc5c4CCN(C2)C13 (stereo not drawn) [Compound 35i] | < 10 |
| CCCCC1CC2CC3c4oc5ccc(O)cc5c4CCN(C2)C13 (stereo not drawn) [Compound 35h] | < 10 |
| CCC1CC2CC3c4oc5c(O)cccc5c4CCN(C2)C13 (stereo not drawn) [Compound 52a] | > 10 |
| CCC1CC2CC3c4oc5cc(C)c(O)cc5c4CCN(C2)C13 (stereo not drawn) [Compound 52c] | > 10 |
| CCCC1CC2CC3c4oc5ccc(O)cc5c4CCN(C2)C13 (stereo not drawn) [Compound 35c] | < 10 |
| Oc1ccc2oc3c(c2c1)CCN1CC2CC(Cc4ccccc4)C1C3C2 (stereo not drawn) [Compound 35g] | < 10 |
| CCC1CC2CC3c4oc5ccc(O)cc5c4C[C@@H](CC)N(C2)C13 (stereo partly drawn) [α-endo-52g] | > 100 |
| CCC1CC2CC3c4oc5ccc(O)cc5c4CCN(C2)C13 (stereo not drawn) [Compound 35a] | < 10 |

Same assay, conditions: read-out: Emax in parentheses, Human KOR

| Compound | Emax [%] |
| --- | --- |
| CCC1(CC)CC2CC3c4oc5ccc(O)cc5c4C[C@@H](C)N(C2)C31 (stereo partly drawn) [α-endo-52f] | 47 |
| CCC1CC2CC3c4oc5ccc(O)cc5c4C[C@H](C)N(C2)C13 (single isomer, unassigned) [α-exo-52e] | 88 |

Target: T3, Human DOR (Homo sapiens, UniProt P41143)
T3 construct: expressed in transfected cells; host or cells: HEK-293T
Experiment: cell-based
Conditions: not given

T3 sequence (P41143 whole entry): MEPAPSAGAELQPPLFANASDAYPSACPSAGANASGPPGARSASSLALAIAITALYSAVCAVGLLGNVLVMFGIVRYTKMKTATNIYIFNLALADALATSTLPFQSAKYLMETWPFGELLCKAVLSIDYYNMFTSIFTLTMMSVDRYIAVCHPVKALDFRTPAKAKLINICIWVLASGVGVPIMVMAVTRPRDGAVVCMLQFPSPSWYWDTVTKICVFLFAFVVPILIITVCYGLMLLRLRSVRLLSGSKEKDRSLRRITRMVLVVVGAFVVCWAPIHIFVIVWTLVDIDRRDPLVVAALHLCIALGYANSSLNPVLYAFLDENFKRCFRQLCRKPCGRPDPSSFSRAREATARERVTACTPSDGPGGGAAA

| Compound | agonist activity at DOR (in words) |
| --- | --- |
| CCC1(CC)CC2CC3c4oc5ccc(O)cc5c4C[C@@H](C)N(C2)C31 (stereo partly drawn) [α-endo-52f] | not active as agonist |
| CCCC1CC2CC3c4oc5ccc(O)cc5c4CCN(C2)C13 (stereo not drawn) [Compound 35d] | agonist activity |
| CCC1CC2CC3c4oc5ccc(O)cc5c4C[C@@H](CC)N(C2)C13 (stereo partly drawn) [α-endo-52g] | not active as agonist |
| CCC1CC2CC3c4oc5ccc(O)cc5c4CCN(C2)C13 (stereo not drawn) [Compound 35a] | full agonist |

Same assay, conditions: EC50, Human DOR

| Compound | EC50 [µM] |
| --- | --- |
| CC[C@H]1Cc2c(oc3ccc(O)cc23)C2CC3CCC2N1C3 (stereo partly drawn) [α-exo-60f] | < 10 |
| CC[C@@H]1Cc2c(oc3ccc(O)cc23)C2CC3CCC2N1C3 (stereo partly drawn) [α-endo-60f] | > 100 |
| CCC1CC2(C)CC3c4oc5ccc(O)cc5c4CCN(C2)C13 (single isomer, unassigned) [Compound 60c] | > 10 |
| COCC1CC2CC3c4oc5ccc(OC)cc5c4CCN(C2)C13 (stereo not drawn) [Compound 59g] | > 100 |
| OCC1CC2CC3c4oc5ccc(O)cc5c4CCN(C2)C13 (stereo not drawn) [Compound 60g] | > 10 |
| Oc1ccc2oc3c(c2c1)CCN1CC2CC(Cc4ccccc4)C1C3C2 (stereo not drawn) [Compound 60h] | > 10 |
| CCC1CC2CC3c4oc5cccc(OC)c5c4CCN(C2)C13 (stereo not drawn) [Compound 51b] | > 100 |
| CCC1CC2CC3c4oc5cc(C)c(OC)cc5c4CCN(C2)C13 (stereo not drawn) [Compound 51c] | > 10 |
| CC1C2CCC3C(C2)c2oc4ccc(O)cc4c2CCN13 (stereo not drawn) [Compound 60d] | > 100 |

Same assay, conditions: EC50, induced BRET signal, Human DOR

| Compound | EC50 [µM] |
| --- | --- |
| CCCC1CC2CC3c4oc5ccc(O)cc5c4CCN(C2)C13 (stereo not drawn) [Compound 35d] | 5.7 ± 5.1 |
| CCC1CC2CC3c4oc5ccc(O)cc5c4CCN(C2)C13 (stereo not drawn) [Compound 35a] | 4.5 ± 1.2 |

Same assay, conditions: EC50 at indicated opioid receptor, Human DOR

| Compound | EC50 [µM] |
| --- | --- |
| CCC1CC2CC3c4oc5cc(F)c(OC)cc5c4CCN(C2)C13 (stereo not drawn) [Compound 34l] | > 100 |
| COCC1CC2CC3c4oc5ccc(O)cc5c4CCN(C2)C13 (stereo not drawn) [Compound 35i] | < 10 |
| CCCCC1CC2CC3c4oc5ccc(O)cc5c4CCN(C2)C13 (stereo not drawn) [Compound 35h] | < 10 |
| CCC1(CC)CC2CC3c4oc5ccc(O)cc5c4C[C@@H](C)N(C2)C31 (stereo partly drawn) [α-endo-52f] | > 100 |
| CCC1CC2CC3c4oc5c(O)cccc5c4CCN(C2)C13 (stereo not drawn) [Compound 52a] | > 100 |
| CCC1CC2CC3c4oc5cc(C)c(O)cc5c4CCN(C2)C13 (stereo not drawn) [Compound 52c] | > 10 |
| CCCC1CC2CC3c4oc5ccc(O)cc5c4CCN(C2)C13 (stereo not drawn) [Compound 35c] | < 10 |
| Oc1ccc2oc3c(c2c1)CCN1CC2CC(Cc4ccccc4)C1C3C2 (stereo not drawn) [Compound 35g] | < 10 |
| CCC1CC2CC3c4oc5ccc(O)cc5c4C[C@H](C)N(C2)C13 (single isomer, unassigned) [α-exo-52f] | > 100 |
| CCC1CC2CC3c4oc5ccc(O)cc5c4C[C@@H](CC)N(C2)C13 (stereo partly drawn) [α-endo-52g] | > 100 |
| CCC1CC2CC3c4oc5ccc(O)cc5c4CCN(C2)C13 (stereo not drawn) [Compound 35a] | < 10 |

Same assay, conditions: read-out: Emax in parentheses, Human DOR

| Compound | Emax [%] |
| --- | --- |
| CCC1CC2CC3c4oc5ccc(O)cc5c4C[C@H](C)N(C2)C13 (single isomer, unassigned) [α-exo-52e] | 98 |
